What all share (assay): inhibition of tumour cell growth, NCI panel, 48 h
The test system of assay [1] is ACHN renal.
Assay [2] has as its system HCT-116 colon.
In assay [3] the test system is HOP-62 NSCLC.
Assay [4] has as its system IGROV1 ovarian.
The subject of assay [5] is K-562 leukemia.
For assay [6], the system named is KM12 colon.
The test system of assay [7] is LOX IMVI melanoma.
Assay [8] deals with SF-295 CNS.
In assay [9] the test system is SR leukemia.
The subject of assay [10] is UACC-62 melanoma.

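Following 48 hours of exposure in 96-well plates, responses at five concentrations were used to interpolate endpoints linearly. The concentration for 50% growth inhibition is given as GI50. At the TGI there is no net growth.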

`c1ccc(C2=NNC3c4ccccc4-c4ccccc4N3C2)cc1` (stereo not drawn): the TGI in assay [1] is more than 100 µM; in assay [2], more than 100 µM; in assay [3], more than 100 µM; in assay [4] it was more than 100 µM; in [5] it was 82 µM; in [6] it was more than 100 µM. The TGI was more than 100 µM in [7], more than 100 µM in assay [8], 56.8 µM in [9] and 35.2 µM in [10].
Turning to `CN(C)P(=O)(/C(N)=N/Nc1ccc([N+](=O)[O-])cc1)N(C)C`, the TGI in assay [1], in assay [2], in assay [3], in assay [5], in [6] and in [7] was more than 100 µM each time. The TGI in assay [9] and in assay [10] was more than 100 µM each time.
As to `O=C(O)CP(=S)(S)c1ccccc1` (stereo not drawn), the TGI in assay [1], in assay [3], in assay [5], in assay [6], in assay [7] and in assay [8] was more than 100 µM throughout. For the same compound, the TGI in [9] and in [10] was more than 100 µM throughout.
On to `CCOC(=O)CN=c1nc(SC)sc2c(C(=O)OCC)nc(Sc3ccccc3)n12`, for which the TGI in assay [2], in assay [3], in [4], in assay [5], in assay [6] and in [7] was more than 100 µM each time. The TGI in [9] and in assay [10] was more than 100 µM each time.
As to `CC12CCCC(O)C1CCC1=CC3(CCC12)SCCS3` (stereo not drawn), the TGI in assay [1], in assay [3], in assay [4], in assay [5], in assay [6] and in assay [7] was more than 10 µM throughout. Also, the TGI in assay [8], in assay [9] and in [10] was more than 10 µM each time.
With `CCOC(=O)c1cc(/C(=N\O)c2cc(OC)c(OC)c(OC)c2)n2cc(C)cc(C)c12`, the GI50 in assay [1] is 3 µM; in assay [2], 1.86 µM; in [3] it was 1.73 µM; in assay [4] it was 3.21 µM; in [6] it was 2.31 µM; in [7], 2.4 µM. Further, the figures for the GI50 in [8] and in assay [9] were 1.72 µM and 0.56 µM, respectively. Also, the TGI in assay [1] is more than 100 µM; in assay [2] it was 3.93 µM; in [3] it was 5.45 µM; in assay [4] it was more than 100 µM; in [6], more than 100 µM; in assay [7], 7.68 µM. Further, the TGI amounted to 5.25 µM in assay [8] and 4.57 µM in assay [9].
Consider `Cc1ccccc1N(CCC#N)C1=NN(C(=O)CC(=O)Nc2ccccc2)C(c2ccccc2)C1` (stereo not drawn), for which the TGI in [1], in [2], in [3], in [4], in assay [5] and in [6] was more than 100 µM each time. In addition, the TGI in assay [8], in [9] and in assay [10] was more than 100 µM in each case.
`Nc1ncc(-c2cnn(CCO)c2)c2scc(-c3ccc(NC(=O)Nc4cccc(F)c4)cc3)c12`: the GI50 in assay [1] is 0.289 µM; in [2], 0.206 µM; in [3], 0.418 µM; in assay [4], 0.285 µM; in assay [5], 0.0399 µM; in assay [6], 0.0103 µM. Besides, the GI50 was less than 0.0373 µM in assay [8], less than 0.01 µM in assay [9] and 0.37 µM in assay [10]. The TGI came out at 4.75 µM in [1]; 3.18 µM in assay [2]; 2.71 µM in assay [3]; 2.61 µM in [4]; 15.1 µM in assay [5]; 1.19 µM in assay [6]. For the same compound, the TGI in [8] was 0.762 µM; in [9], 1.26 µM; in [10] it was 1.78 µM.
`CCN(CC)CCN1CC(O)=C(c2nc(-c3ccc(Cl)cc3)cs2)C1=N`: the GI50 in assay [1] is 3.14 µM; in [2] it was 1.78 µM; in [3], 1.83 µM; in [5], 1.42 µM; in [6] it was 2.72 µM; in [7], 1.83 µM. The GI50 in assay [8] was 1.8 µM; in [9], 1.43 µM; in assay [10] it was 1.87 µM. Besides, the TGI in assay [1] was 12 µM; in [2], 4.16 µM; in [3], 3.99 µM; in [5] it was 3.04 µM; in [6] it was 8.09 µM; in assay [7], 3.43 µM. The figures for the TGI in assay [8], in assay [9] and in [10] were 3.49 µM, 3.7 µM and 3.53 µM, respectively.
Turning to `COc1ccc(N2C(=O)C3c4[nH]c5ccc(C)cc5c4C4CCC(C(C)(C)C)CC4C3C2=O)cc1` (stereo not drawn), the TGI in assay [1] is 25.5 µM; in assay [2] it was 40.5 µM; in assay [3], 33.4 µM; in assay [4], more than 100 µM; in assay [5] it was 41.2 µM; in assay [6], more than 100 µM. In addition, the TGI in [8] was determined as 23.3 µM; in assay [9], 32.4 µM; in [10] it was 29.7 µM.
Consider `Nc1ccc(/C=C/c2ccnc3ccccc23)cc1`, for which the TGI is more than 100 µM in assay [1]; 42.4 µM in assay [2]; 41.5 µM in assay [3]; more than 100 µM in assay [4]; 44 µM in assay [5]; 49.3 µM in assay [6]. In addition, the TGI in assay [8] worked out at 46.1 µM; in assay [9], 32.4 µM; in [10], 56.9 µM.
In the case of `CCOC(=O)c1c(CN2CCN(c3ccccc3)CC2)n(-c2ccccc2)c2cc(Br)c(O)cc12`, the GI50 in assay [1] was 8.39 µM; in assay [2] it was 4.39 µM; in assay [3], 17.2 µM; in [5], 6.32 µM; in [6], 8.49 µM; in assay [7] it was 3.1 µM. Moreover, the values for the GI50 in [8], in [9] and in [10] were 4.7 µM, 3.82 µM and 16.1 µM, respectively. Moreover, the TGI in assay [1] was 21.9 µM; in [2] it was 20.1 µM; in assay [3], 33.4 µM; in assay [5], more than 100 µM; in assay [6] it was 39.9 µM; in assay [7] it was 11.1 µM. The TGI in [8] is 24.3 µM; in assay [9] it was more than 100 µM; in assay [10], 29.6 µM.
Take `Cc1ccc(/C(=C/C=C(C#N)C#N)Sc2ccc(Cl)cc2)cc1`: the GI50 in assay [1] was 4.62 µM; in assay [2] it was 2.24 µM; in assay [3] it was 6.4 µM; in assay [5], 3.34 µM; in [6], 5.5 µM; in assay [7] it was 2.57 µM. Also, the GI50 is 4.07 µM in assay [8], 2.32 µM in assay [9] and 5.3 µM in [10]. Further, the TGI in assay [1] is 36.9 µM; in assay [2] it was 3.97 µM; in [3], 15.6 µM; in [5] it was 18.4 µM; in [6] it was 26.7 µM; in assay [7], 5.98 µM. In addition, the TGI in [8] is 16.8 µM; in assay [9] it was 6.14 µM; in [10], 23.1 µM.
With `COc1ccc(C(C)c2cc3c(cc2OC)OCO3)cc1` (stereo not drawn), the TGI was more than 100 µM in [1]; 46.3 µM in assay [2]; more than 46.2 µM in assay [3]; 7.47 µM in [4]; more than 57.6 µM in [5]; more than 41 µM in [6]. For the same compound, the TGI is 27.3 µM in assay [7], more than 5.04 µM in [9] and more than 69.2 µM in assay [10].
With `CCCCCCCC(CC(=O)NC(CO)C(=O)NC(CO)CC(C)C)OC(=O)CC(CCCCCCC)OC(=O)CC(CCCCCCC)OC1OC(C)C(O)C(OC2OC(C)C(O)C(OC(C)=O)C2O)C1O` (stereo not drawn), the TGI in [1] was found to be 31.4 µM; in [2] it was 25.8 µM; in assay [3], 24.8 µM; in [4], 24.8 µM; in assay [5], 31.4 µM; in [6], 22.1 µM. Also, the TGI is 30.2 µM in assay [8], 13.2 µM in assay [9] and 25.8 µM in [10].
On to `COC(=O)C(=O)C(C(=O)C(=O)Nc1ccccc1C(N)=O)c1nc2ccc(Cl)cc2[nH]c1=O` (stereo not drawn), for which the TGI in assay [1], in assay [2], in [5], in assay [6], in assay [7] and in assay [8] was more than 100 µM in each case. Besides, the TGI in assay [9] and in assay [10] was more than 100 µM each time.
As for `NC(CC(=O)OCc1ccccc1)C(=O)OCc1ccccc1` (stereo not drawn), the TGI in [1], in assay [2], in assay [3], in assay [4], in assay [6] and in [7] was more than 100 µM throughout. Further, the TGI in assay [8], in assay [9] and in assay [10] was more than 100 µM throughout.
